Laboratory results published in US12577273B2, “Small molecule modulators of gut bacterial bile acid metabolism” (priority 2019, dated 2026).
Where “and” joins values, the source holds several entries; their conditions need not be identical. Identical values can stand only once. Entries after “also recorded” stand apart in the source; their conditions may differ.

Columns and labels:
[1] = tested on: B. theta; test: Inhibitor screen in bacteria, B. theta culture; assay type: cell-based, Bacteroides thetaiotaomicron VPI-5482; settings: FIG. 2c, 100 μM inhibitor, 21 h, replicates 1-3
Experimental: (§1) Bacterial Culturing. All bacterial strains were cultured at 37° C. in Cullen-Haiser Gut (CHG) media (which consists of brain heart infusion media (Bacto™ BHI, BD) supplemented with 1% BBL vitamin K1-hemin solution (BD), 1% trace minerals solution (ATCC), 1% trace vitamins solution (ATCC), 5% fetal bovine serum (Hyclone), 1 g/L cellubiose, 1 g/L maltose, and 1 g/L fructose) or BHI^+ (Bacto™ BHI, BD, supplemented with 5 mg/L hemin, and 2.5 uL/L Vitamin K1). All strains were grown under anaerobic conditions in a anaerobic chamber (Coy Lab Products Airlock) with a gas mix of 5% hydrogen and 20% carbon dioxide nitrogen. Escherichia coli was grown aerobically at 37° C. in LB medium supplemented with ampicillin to select for the pET21b plasmid.
(§2) Inhibitor Screen in Bacteria. Bacterial cultures were diluted to OD600 of 0.1 in 4 mL BHI^+, containing 100 μM taurine conjugated bile acid pool 100 μM inhibitors. […] After 21 h, serial dilutions were plated on BHI^+ agar to determine cell viability (CFU/mL). […] The cultures were spun down in a centrifuge at 2,500 g for 5 mins to obtain better separation. The organic layer was then removed and the aqueous layer was extracted again using 2 mL of ethyl acetate.

[2] = tested on: B. fragilis; test: Inhibitor screen in bacteria, B. fragilis culture; assay type: cell-based, Bacteroides fragilis ATCC 25285; settings: FIG. 2c, 100 μM inhibitor, 100 μM bile acid pool, 21 h, replicates 1-3
Experimental: as §1, §2

[3] = tested on: B. vulgatus; test: Inhibitor screen in bacteria, B. vulgatus culture; assay type: cell-based, Bacteroides vulgatus ATCC 8482; settings: FIG. 2c, 100 μM inhibitor, 100 μM bile acid pool, 21 h, replicates 1-3
Experimental: as §1, §2

[4] = tested on: L. plantarum; test: Inhibitor screen in bacteria, L. plantarum culture; assay type: cell-based, Lactobacillus plantarum WCFS1
[5] = tested on: C. perfingens; assay type: cell-based, Clostridium perfringens ATCC 13124; settings: FIG. 2c, C. perfingens culture; 100 μM inhibitor, 100 μM bile acid pool, 21 h; replicates 1-3
[6] = tested on: B. adolescentis; test: Inhibitor screen in bacteria, B. adolescentis culture; assay type: cell-based, Bifidobacterium adolescentis L2-32; settings: FIG. 2c, 100 μM inhibitor, 100 μM bile acid pool, 21 h, replicates 1-3
[7] = tested on: three Gram negative and three Gram positive strains of human gut bacteria; test: BSH inhibition in growing cultures of six gut bacterial strains (overall statements); assay type: cell-based; settings: 100 μM inhibitor, 100 μM conjugated bile acid mixture
[8] = tested on: BSH activity in conventional mouse feces; test: Screen of inhibitors in conventional mouse feces; assay type: biochemical
Experimental: Screen of Inhibitors in Conventional Mouse Feces. […] The tubes were then frozen in dry ice for 5 mins and upon thawing were diluted with an equal volume of methanol. […] The supernatant was removed into a clean eppendorf tube and centrifuged again. […] The concentration of product detected from these assays was reported directly.

[9] = tested on: B. theta BSH KO strain; test: Incubation with BSH-deleted B. theta strain; settings: 100 μM inhibitor
[10] = target: B. theta BSH (Bacteroides thetaiotaomicron, UniProt Q8A600); test: Inhibitor screen using rBSH, B. theta BSH (UPLC-MS % deconjugation); settings: 100 μM inhibitor, 30 min preincubation, monitored over 21 hours
[11] = tested on: three Gram negative and three Gram positive strains of human gut bacteria; test: Growth (OD600) and cell viability (CFU/mL) of the six gut bacterial strains; settings: 100 μM inhibitor
[12] = target: T1, B. longum BSH (Bifidobacterium longum, UniProt Q9KK62); test: Inhibitor screen using rBSH, B. longum BSH (UPLC-MS % deconjugation); assay type: biochemical, Bifidobacterium longum SBT2928; design: His6 (C); made in house; host or cells: Escherichia coli (as for the B. theta enzyme); settings: 100 μM inhibitor; 2 h, 5 h and 21 h timepoints
T1 sequence (Q9KK62 1-317): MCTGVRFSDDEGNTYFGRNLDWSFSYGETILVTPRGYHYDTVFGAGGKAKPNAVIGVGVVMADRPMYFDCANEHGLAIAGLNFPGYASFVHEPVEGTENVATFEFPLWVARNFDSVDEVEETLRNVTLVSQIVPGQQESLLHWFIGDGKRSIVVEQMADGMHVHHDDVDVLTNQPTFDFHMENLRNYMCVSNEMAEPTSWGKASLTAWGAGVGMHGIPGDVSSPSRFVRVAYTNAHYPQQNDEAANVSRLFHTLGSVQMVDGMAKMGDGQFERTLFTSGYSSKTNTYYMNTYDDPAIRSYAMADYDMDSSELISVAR
Experimental: B. longum rBSH. Recombinant BSH from B. longum SBT2928 was expressed and purified as above, except 0.25 mM IPTG was used for protein expression and 1 mM TCEP for protein purification.
Inhibitor Screen Using rBSHs.

[13] = substrate: C[C@H](CCC(=O)NCCS(=O)(=O)O)[C@H]1CC[C@H]2[C@@H]3CC[C@@H]4C[C@H](O)CC[C@]4(C)[C@H]3C[C@H](O)[C@]12C; test: purified protein, by the assay type
[14] = substrate: C[C@H](CCC(=O)NCCS(=O)(=O)O)[C@H]1CC[C@H]2[C@@H]3[C@@H](O)C[C@@H]4C[C@H](O)CC[C@]4(C)[C@H]3CC[C@]12C; test: purified protein, by the assay type
[15] = substrate: C[C@H](CCC(=O)NCCS(=O)(=O)O)[C@H]1CC[C@H]2[C@@H]3[C@H](O)C[C@@H]4C[C@H](O)CC[C@]4(C)[C@H]3C[C@H](O)[C@]12C; test: purified protein, by the assay type; settings: other: Table 3; substrate of B. longum BSH; mean ± SEM, n = 3; pH 7.5; 37.0 °C
[16] = FIG. 2c, L. plantarum culture, 100 μM inhibitor, 100 μM bile acid pool, 21 h, replicates 1-3
[17] = other: Table 1, substrate of B. longum BSH, PBS pH 7.5, 37° C.
[18] = other: Table 3, substrate of B. longum BSH, mean ± SEM, n = 3, pH 7.5, 37.0 °C

O=C(/C=C/c1ccc(O)c(O)c1)OCCc1ccccc1 [CAPE, caffeic acid phenethyl ester, reference compound]
% deconjugation of TDCA ([1]; 100 μM bile acid pool): 2.06% and 0.90% and 0.81%
% deconjugation of TUDCA ([1]; 100 μM bile acid pool): 2.31% and 5.36% and 2.32%
% deconjugation of TβMCA ([1]; 100 μM bile acid pool): 0.64% and 0.28% and 0.16%
% deconjugation of TCA ([1]; 100 μM taurine conjugated bile acid pool): 0.42% and 0.72% and 0.52%
% deconjugation of TCA [2]: 88.33% and 85.35% and 84.93%
% deconjugation of TDCA [2]: 98.95% and 98.93% and 99.13%
% deconjugation of TUDCA [2]: 98.66% and 98.65% and 99.13%
% deconjugation of TβMCA [2]: 98.64% and 98.42% and 99.12%
% deconjugation of TCA [3]: 1.46% and 1.06% and 0.00%
% deconjugation of TDCA [3]: 5.47% and 3.03% and 1.28%
% deconjugation of TUDCA [3]: 82.37% and 94.25% and 87.91%
% deconjugation of TβMCA [3]: 88.92% and 78.15% and 71.86%
inhibition of deconjugation in L. plantarum (in words) ([4]; 100 μM CAPE): inhibit deconjugation in L. plantarum
% deconjugation of TCA [4, 16]: 10.67% and 33.19% and 53.29%
% deconjugation of TDCA [4, 16]: 47.57% and 82.98% and 93.57%
% deconjugation of TUDCA [4, 16]: 6.80% and 1.73% and 3.54%
% deconjugation of TβMCA [4, 16]: 0.06% and 0.59% and 0.95%
% deconjugation of TCA [5]: 100.00%
% deconjugation of TDCA [5]: 99.71% and 99.30% and 99.38%
% deconjugation of TUDCA [5]: 98.92% and 98.62% and 98.71%
% deconjugation of TβMCA [5]: 100.00%
% deconjugation of TCA [6]: 100.00%
% deconjugation of TDCA [6]: 99.85% and 100.00% and 99.71%
% deconjugation of TUDCA [6]: 99.43% (2×) and 100.00%
% deconjugation of TβMCA [6]: 100.00%
deconjugation / BSH inhibition in cultures of the six bacterial strains (in words) [7]: no inhibition of deconjugation was observed over the course of 21 hours in five out of the six bacterial strains; also recorded: neither riboflavin nor CAPE displayed significant inhibitory activity against any of the Gram negative strains; also recorded: No BSH inhibition in five out of the six bacterial strains
BSH activity in resuspended conventional mouse feces (in words) ([8]; 20 μM inhibitor, 30 min, then GCDCA-d4 100 μM, 18 hours): minimal inhibitory activity; also recorded: no inhibition of BSH activity in feces
deconjugation in resuspended mouse feces (in words) ([8]; either 20 μM or 100 μM): did not noticeably reduce deconjugation
bactericidal effect on BSH-deleted B. theta (CFUs after 24 h) [9]: significantly affect the growth
inhibition of B. theta BSH (in words) [10]: only moderate inhibition
effect on bacterial cell viability (CFU/mL, plated at 21 h) [11]: decreased the cell viability of the Gram negative strains tested; also recorded: inhibited the cell viability of all three Gram negative bacterial strains tested
effect on bacterial growth (OD600 at 24 hours) [11]: inhibited the growth of the Gram positive strains tested; also recorded: inhibited the growth of all three Gram negative bacterial strains tested; also recorded: significantly inhibits the growth of the strains of Gram negative gut bacteria tested
inhibition of B. longum BSH (in words) [12]: ineffective

B1: B. longum BSH (Bifidobacterium longum) (protein)
chain: MCTGVRFSDDEGNTYFGRNLDWSFSYGETILVTPRGYHYDTVFGAGGKAKPNAVIGVGVVMADRPMYFDCANEHGLAIAGLNFPGYASFVHEPVEGTENVATFEFPLWVARNFDSVDEVEETLRNVTLVSQIVPGQQESLLHWFIGDGKRSIVVEQMADGMHVHHDDVDVLTNQPTFDFHMENLRNYMCVSNEMAEPTSWGKASLTAWGAGVGMHGIPGDVSSPSRFVRVAYTNAHYPQQNDEAANVSRLFHTLGSVQMVDGMAKMGDGQFERTLFTSGYSSKTNTYYMNTYDDPAIRSYAMADYDMDSSELISVAR
Km [13, 17]: 2.28 mM
Km [13, 18]: 2.3 ± 0.3 mM
Km [14, 17]: 4.14 mM
Km [14, 18]: 4.1 ± 2.5 mM
Km [15]: 8.3 ± 2.5 mM
kcat [15]: 0.115 s⁻¹
kcat/Km [15]: 13.3 M⁻¹ s⁻¹
